In ChEMBL document CHEMBL4715697, “Synthesis and biological activity of benzamide DNA minor groove binders” (2016):

How the values were obtained:
Type in all cases: functional
[1] = system: COLO 205; test: Growth inhibition of human COLO 205 cells incubated for 48 hrs by sulforhodamine B assay
[2] = system: CAKI-1; test: Growth inhibition of human CAKI-1 cells incubated for 48 hrs by sulforhodamine B assay
[3] = system: HOP-62; test: Growth inhibition of human HOP-62 cells assessed as cell growth at 1 uM incubated for 48 hrs by sulforhodamine B assay relative to control; details: read-out: Activity
[4] = system: RPMI-8226; test: Growth inhibition of human RPMI-8226 cells assessed as cell growth at 100 uM incubated for 48 hrs by sulforhodamine B assay relative to control; details: read-out: Activity
[5] = system: SK-MEL-28; test: Growth inhibition of human SK-MEL-28 cells assessed as cell growth at 1 uM incubated for 48 hrs by sulforhodamine B assay relative to control; details: read-out: Activity
[6] = system: MOLT-4; test: Growth inhibition of human MOLT-4 cells incubated for 48 hrs by sulforhodamine B assay
[7] = system: NCI-H522; test: Growth inhibition of human NCI-H522 cells assessed as cell growth at 0.1 uM incubated for 48 hrs by sulforhodamine B assay relative to control; details: read-out: Activity
[8] = system: HCT-15; test: Growth inhibition of human HCT-15 cells incubated for 48 hrs by sulforhodamine B assay
[9] = system: HOP-62; test: Growth inhibition of human HOP-62 cells assessed as cell growth at 100 uM incubated for 48 hrs by sulforhodamine B assay relative to control; details: read-out: Activity
[10] = system: HT-29; test: Growth inhibition of human HT-29 cells incubated for 48 hrs by sulforhodamine B assay
[11] = system: HT-29; test: Growth inhibition of human HT-29 cells assessed as cell growth at 100 uM incubated for 48 hrs by sulforhodamine B assay relative to control; details: read-out: Activity
[12] = system: CCRF-CEM; test: Growth inhibition of human CCRF-CEM cells assessed as cell growth at 0.1 uM incubated for 48 hrs by sulforhodamine B assay relative to control; details: read-out: Activity
[13] = system: SNB-75; test: Growth inhibition of human SNB-75 cells assessed as cell growth at 100 uM incubated for 48 hrs by sulforhodamine B assay relative to control; details: read-out: Activity
[14] = system: K562; test: Growth inhibition of human K562 cells assessed as cell growth at 100 uM incubated for 48 hrs by sulforhodamine B assay relative to control; details: read-out: Activity
[15] = system: SK-MEL-2; test: Growth inhibition of human SK-MEL-2 cells assessed as cell growth at 1 uM incubated for 48 hrs by sulforhodamine B assay relative to control; details: read-out: Activity
[16] = system: M14; test: Growth inhibition of human M14 cells incubated for 48 hrs by sulforhodamine B assay
[17] = system: MDA-MB-435; test: Growth inhibition of human MDA-MB-435 cells assessed as cell growth at 100 uM incubated for 48 hrs by sulforhodamine B assay relative to control; details: read-out: Activity
[18] = system: MDA-MB-231; test: Growth inhibition of human MDA-MB-231 cells assessed as cell growth at 1 uM incubated for 48 hrs by sulforhodamine B assay relative to control; details: read-out: Activity
[19] = system: T47D; test: Growth inhibition of human T47D cells assessed as cell growth at 1 uM incubated for 48 hrs by sulforhodamine B assay relative to control; details: read-out: Activity
[20] = system: MOLT-4; test: Growth inhibition of human MOLT-4 cells assessed as cell growth at 0.01 uM incubated for 48 hrs by sulforhodamine B assay relative to control; details: read-out: Activity
[21] = system: SK-MEL-2; test: Growth inhibition of human SK-MEL-2 cells assessed as cell growth at 0.1 uM incubated for 48 hrs by sulforhodamine B assay relative to control; details: read-out: Activity
[22] = system: RXF 393; test: Growth inhibition of human RXF 393 cells assessed as cell growth at 1 uM incubated for 48 hrs by sulforhodamine B assay relative to control; details: read-out: Activity
[23] = system: MDA-MB-231; test: Growth inhibition of human MDA-MB-231 cells incubated for 48 hrs by sulforhodamine B assay
[24] = system: SK-MEL-28; test: Growth inhibition of human SK-MEL-28 cells assessed as cell growth at 0.1 uM incubated for 48 hrs by sulforhodamine B assay relative to control; details: read-out: Activity
[25] = system: MDA-MB-435; test: Growth inhibition of human MDA-MB-435 cells assessed as cell growth at 0.1 uM incubated for 48 hrs by sulforhodamine B assay relative to control; details: read-out: Activity
[26] = system: SNB-19; test: Growth inhibition of human SNB-19 cells assessed as cell growth at 100 uM incubated for 48 hrs by sulforhodamine B assay relative to control; details: read-out: Activity
[27] = system: NCI-H522; test: Growth inhibition of human NCI-H522 cells incubated for 48 hrs by sulforhodamine B assay
[28] = system: TK-10; test: Growth inhibition of human TK-10 cells assessed as cell growth at 0.01 uM incubated for 48 hrs by sulforhodamine B assay relative to control; details: read-out: Activity
[29] = system: HCC 2998; test: Growth inhibition of human HCC 2998 cells assessed as cell growth at 0.1 uM incubated for 48 hrs by sulforhodamine B assay relative to control; details: read-out: Activity
[30] = system: MCF7; test: Growth inhibition of human MCF7 cells assessed as cell growth at 100 uM incubated for 48 hrs by sulforhodamine B assay relative to control; details: read-out: Activity
[31] = system: NCI-H322M; test: Growth inhibition of human NCI-H322M cells assessed as cell growth at 0.01 uM incubated for 48 hrs by sulforhodamine B assay relative to control; details: read-out: Activity
[32] = system: MDA-MB-468; test: Growth inhibition of human MDA-MB-468 cells assessed as cell growth at 1 uM incubated for 48 hrs by sulforhodamine B assay relative to control; details: read-out: Activity
[33] = system: SF-295; test: Growth inhibition of human SF-295 cells assessed as cell growth at 0.01 uM incubated for 48 hrs by sulforhodamine B assay relative to control; details: read-out: Activity
[34] = system: T47D; test: Growth inhibition of human T47D cells assessed as cell growth at 100 uM incubated for 48 hrs by sulforhodamine B assay relative to control; details: read-out: Activity
[35] = read-out: LC50 (the source's name)
[36] = read-out: pLC50 (the source's name) (converted)

For `CC(=O)Nc1cc(CCl)cc(NC(=O)c2ccc(C(=O)Nc3cccc(NC(=O)CCCN(C)C)c3)cc2)c1`, the GI50 ([1]; read-out: GI50) was > 100 µM, the LC50 ([1]; read-out: LC50) was > 100 µM and the TGI ([1]; read-out: TGI) was > 100 µM. For the same compound, the GI50 ([1]; read-out: pGI50 (converted)) was > 100 µM, the LC50 ([1]; read-out: pLC50 (converted)) was > 100 µM and the TGI ([1]; read-out: pTGI) was > 100 µM. For the same compound, the GI50 ([2]; read-out: GI50) was > 100 µM, the CC50 [2, 35] was > 100 µM and the TGI ([2]; read-out: TGI) was > 100 µM. The GI50 ([2]; read-out: pGI50 (converted)) was > 100 µM, the CC50 [2, 36] was > 100 µM and the TGI ([2]; read-out: pTGI) was > 100 µM. For the same compound, the growth at 1 µM [3] was 102%, the growth at 100 µM [4] was 107% and the growth at 1 µM [5] was 96%. The GI50 ([6]; read-out: GI50) was > 100 µM, the CC50 [6, 35] was > 100 µM and the TGI ([6]; read-out: TGI) was > 100 µM. The GI50 ([6]; read-out: pGI50 (converted)) was > 100 µM, the CC50 [6, 36] was > 100 µM and the TGI ([6]; read-out: pTGI) was > 100 µM. The growth at 0.1 µM [7] was 89%, the GI50 ([8]; read-out: GI50) was > 100 µM and the CC50 [8, 35] was > 100 µM. The TGI ([8]; read-out: TGI) was > 100 µM, the GI50 ([8]; read-out: pGI50 (converted)) was > 100 µM and the CC50 [8, 36] was > 100 µM. The TGI ([8]; read-out: pTGI) was > 100 µM, the growth at 100 µM [9] was 95% and the GI50 ([10]; read-out: GI50) was > 100 µM. The CC50 [10, 35] was > 100 µM, the TGI ([10]; read-out: TGI) was > 100 µM and the GI50 ([10]; read-out: pGI50 (converted)) was > 100 µM. The CC50 [10, 36] was > 100 µM, the TGI ([10]; read-out: pTGI) was > 100 µM and the growth at 100 µM [11] was 51%. The growth at 0.1 µM [12] was 113%, the growth at 100 µM [13] was 97% and the growth at 100 µM [14] was 106%. The growth at 1 µM [15] was 109%, the GI50 ([16]; read-out: GI50) was > 100 µM and the CC50 [16, 35] was > 100 µM. For the same compound, the TGI ([16]; read-out: TGI) was > 100 µM, the GI50 ([16]; read-out: pGI50 (converted)) was > 100 µM and the CC50 [16, 36] was > 100 µM. For the same compound, the TGI ([16]; read-out: pTGI) was > 100 µM, the growth at 100 µM [17] was 94% and the growth at 1 µM [18] was 104%. The growth at 1 µM [19] was 94%, the growth at 0.01 µM [20] was 102% and the growth at 0.1 µM [21] was 111%. For the same compound, the growth at 1 µM [22] was 88%, the GI50 ([23]; read-out: GI50) was > 100 µM and the CC50 [23, 35] was > 100 µM. For the same compound, the TGI ([23]; read-out: TGI) was > 100 µM, the GI50 ([23]; read-out: pGI50 (converted)) was > 100 µM and the CC50 [23, 36] was > 100 µM. For the same compound, the TGI ([23]; read-out: pTGI) was > 100 µM, the growth at 0.1 µM [24] was 91% and the growth at 0.1 µM [25] was 93%. For the same compound, the growth at 100 µM [26] was 117%, the GI50 ([27]; read-out: GI50) was > 100 µM and the CC50 [27, 35] was > 100 µM. The TGI ([27]; read-out: TGI) was > 100 µM, the GI50 ([27]; read-out: pGI50 (converted)) was > 100 µM and the CC50 [27, 36] was > 100 µM. The TGI ([27]; read-out: pTGI) was > 100 µM, the growth at 0.01 µM [28] was 99% and the growth at 0.1 µM [29] was 94%. It also gave a growth at 100 µM [30] of 27%, a growth at 0.01 µM [31] of 106% and a growth at 1 µM [32] of 86%. It also gave a growth at 0.01 µM [33] of 74% and a growth at 100 µM [34] of 71%.
